Here are results for 13 compounds from ChEMBL document CHEMBL3763058, “Design, RNA cleavage and antiviral activity of new artificial ribonucleases derived from mono-, di- and tripeptides connected by linkers of different hydrophobicity” (Bioorg Med Chem, 2016).

The structures appear in SMILES notation. Active and inactive are the calls of the source. The rule behind the calls is not given here.

Assay [1] has as its system Human immunodeficiency virus 1. Nature of the assay: Binding affinity to HIV1 5'-[32P]HIV96 RNA assessed as time of half viral RNA cleavage of at 1 mM.
The test system of assay [2] is Human immunodeficiency virus 1. Nature of the assay: Binding affinity to HIV1 5'-[32P]HIV96 RNA assessed as viral RNA cleavage rate constant at 1 mM.
Assay [3] deals with Human immunodeficiency virus 1. Nature of the assay: Binding affinity to HIV1 5'-[32P]HIV96 RNA assessed as viral RNA cleavage at 1 mM measured after 3 and 7 hrs relative to control.
Assay [4] concerns Human immunodeficiency virus 1. Nature of the assay: Binding affinity to HIV1 5'-[32P]ON21 RNA assessed as viral RNA cleavage at 1 mM measured after 3 and 7 hrs relative to control.
Assay [5] relates to Human immunodeficiency virus 1. Nature of the assay: Binding affinity to HIV1 5'-[32P]ON21 RNA in Tris-Hcl buffer assessed as RNA cleavage rate constant for 5 hrs at pH 7.5.
Assay [6] deals with Human immunodeficiency virus 1. Nature of the assay: Binding affinity to HIV1 5'-[32P]ON21 RNA in cacodylate buffer assessed as RNA cleavage rate constant for 3 hrs at pH 6.2 to 7.2.
The test system of assay [7] is Influenza A virus. Nature of the assay: Antiviral activity against Influenza A virus (A/WSN/33(H1N1)) infected in MDCK cells assessed as viral titer at 2 mM compound preincubated with virus for 24 hrs followed by host cell infection measured after 18 hrs by AEC staining based inverted microscopic analysis (reference value: 5.2 log10 FFU/ml). It is filed as functional, A/WSN/1933(H1N1).

A further assay concerns MDCK. Nature of the assay: Cytotoxicity against MDCK cells assessed as reduction in cell viability after 24 hrs by MTT assay. It is filed as cell-based. The note with it: Canis lupus familiaris.
Assay [8] relates to Influenza A virus. Nature of the assay: Antiviral activity against Influenza A virus (A/WSN/33(H1N1)) infected in MDCK cells assessed as reduction in viral titer compound preincubated with virus for 24 hrs followed by host cell infection measured after 24 hrs by AEC staining based inverted microscopic analysis. It is filed as functional, organism-based. The note with it: A/WSN/1933(H1N1).

In assay [9] the test system is Influenza A virus. Nature of the assay: Antiviral activity against Influenza A virus (A/WSN/33(H1N1)) infected in MDCK cells assessed as viral titer at 0.2 mM compound preincubated with virus for 24 hrs followed by host cell infection measured after 18 hrs by AEC staining based inverted microscopic analysis (reference value: 5.2 log10 FFU/ml). The class given is functional, A/WSN/1933(H1N1).

For assay [10], the system named is Influenza A virus. Nature of the assay: Antiviral activity against Influenza A virus (A/WSN/33(H1N1)) infected in MDCK cells assessed as reduction in viral titer at 2 mM compound preincubated with virus for 24 hrs followed by host cell infection measured after 18 hrs by AEC staining based inverted microscopic analysis relative to control. The class given is functional, A/WSN/1933(H1N1).

The subject of assay [11] is Influenza A virus. Nature of the assay: Antiviral activity against Influenza A virus (A/WSN/33(H1N1)) infected in MDCK cells assessed as reduction in viral titer at 0.001 to 4 mM compound preincubated with virus for 24 hrs followed by host cell infection measured after 18 hrs by AEC staining based inverted microscopic analysis relative to control. It is filed as functional, A/WSN/1933(H1N1).

Assay [12] relates to Influenza A virus. Nature of the assay: Antiviral activity against Influenza A virus (A/WSN/33(H1N1)) infected in MDCK cells assessed as reduction in viral titer at 4 mM compound preincubated with virus for 24 hrs followed by host cell infection measured after 18 hrs by AEC staining based inverted microscopic analysis. The class given is functional, A/WSN/1933(H1N1).
Assay [13] has as its system Influenza A virus. Nature of the assay: Antiviral activity against Influenza A virus (A/WSN/33(H1N1)) infected in MDCK cells assessed as viral titer at 0.1 mM compound preincubated with virus for 24 hrs followed by host cell infection measured after 18 hrs by AEC staining based inverted microscopic analysis (reference value: 5.2 log10 FFU/ml). The class given is functional, A/WSN/1933(H1N1).

In assay [14] the test system is Influenza A virus. Nature of the assay: Antiviral activity against Influenza A virus (A/WSN/33(H1N1)) infected in MDCK cells assessed as viral titer at 1 mM compound preincubated with virus for 24 hrs followed by host cell infection measured after 18 hrs by AEC staining based inverted microscopic analysis (reference value: 5.2 log10 FFU/ml). It is filed as functional, A/WSN/1933(H1N1).

The subject of assay [15] is Influenza A virus. Nature of the assay: Antiviral activity against Influenza A virus (A/WSN/33(H1N1)) infected in MDCK cells assessed as viral titer at 0.5 mM compound preincubated with virus for 24 hrs followed by host cell infection measured after 18 hrs by AEC staining based inverted microscopic analysis (reference value: 5.2 log10 FFU/ml). The class given is functional, A/WSN/1933(H1N1).

The subject of assay [16] is Influenza A virus. Nature of the assay: Antiviral activity against Influenza A virus (A/WSN/33(H1N1)) infected in MDCK cells assessed as viral titer at 4 mM compound preincubated with virus for 24 hrs followed by host cell infection measured after 18 hrs by AEC staining based inverted microscopic analysis (reference value: 5.2 log10 FFU/ml). It is filed as functional, A/WSN/1933(H1N1).

As to `N[C@@H](CO)C(=O)NCCCOCCCCOCCCNC(=O)[C@@H](N)CO`, the TIME in assay [1] was greater than 24 h. Further, the K in assay [2] was determined as 0.002 h⁻¹. Also, the Activity in assay [3] was 6%; in [4] it was 3%.
With `NCCCC[C@H](NC(=O)CCc1c[nH]cn1)C(=O)NCCCOCCCCOCCCNC(=O)[C@H](CCCCN)NC(=O)CCc1c[nH]cn1`, the TIME in assay [1] came out at 8 h. Further, in [5], the outcome was Active. Besides, in [2], the K stood at 0.076 h⁻¹. Besides, the outcome in assay [6] was inactive. The Activity in [3] stood at 44%; in [4] it was 29%.
With `O=C(/C=C/c1c[nH]cn1)N[C@@H](CCCCNC(=O)OCc1ccccc1Cl)C(=O)NCCCOCCCCOCCCNC(=O)[C@H](CCCCNC(=O)OCc1ccccc1Cl)NC(=O)/C=C/c1c[nH]cn1`, the TIME in assay [1] came out at 7 h. Besides, the Activity was 4 log10FFU/ml in the assay with Influenza A virus [7]; “Dose-dependent effect” in the assay on Influenza A virus [8]; 4.5 log10FFU/ml in the assay on Influenza A virus [9]; 52% in [3]; 42% in assay [4]. Further, the IC50 in the assay on MDCK was determined as 700 µM. For the same compound, the K in assay [2] was 0.11 h⁻¹.
Turning to `NCCCC[C@H](N)C(=O)NCCCOCCCCOCCCNC(=O)[C@@H](N)CCCCN`, the TIME in [1] amounted to 20 h. In addition, the K in [2] worked out at 0.011 h⁻¹. The Activity in [3] was 19%; in assay [4], 8%.
For the compound `NCCCC[C@H](NC(=O)CCCCCNC(=O)[C@@H](N)CCC(=O)O)C(=O)NCCCOCCCCOCCCNC(=O)[C@H](CCCCN)NC(=O)CCCCCNC(=O)[C@@H](N)CCC(=O)O`, the TIME in assay [1] amounted to 6 h. The Activity in the assay on Influenza A virus [7] is 2.2 log10FFU/ml; with Influenza A virus [8], “Dose-dependent effect”; in the assay on Influenza A virus [9] it was 4.9 log10FFU/ml; in assay [3], 57%; in assay [4], 33%. For the same compound, the “fold change (FC)” value with Influenza A virus [10] is listed as 3; with Influenza A virus [11] it was 1.5. Also, the IC50 in the assay on MDCK worked out at 200 µM. Besides, the K in assay [2] came to 0.082 h⁻¹.
For the compound `NCCCC[C@H](NCCCCCNC(=O)[C@@H](N)CCC(=O)O)C(=O)NCCCCCCCCCCCCNC(=O)[C@H](CCCCN)NC(=O)CCCCCNC(=O)[C@@H](N)CCC(=O)O`, the TIME in assay [1] was determined as 3 h. Further, the “fold change (FC)” value with Influenza A virus [12] and in the assay with Influenza A virus [11] was 1.5 throughout. Further, the IC50 with MDCK is 500 µM. In addition, the K in [2] was determined as 0.254 h⁻¹. Further, the result in assay [6] was Active. For the same compound, the Activity result was “Dose-dependent effect” with Influenza A virus [8]; 55% in assay [3]; 3.8 log10FFU/ml in the assay on Influenza A virus [13]; 3.7 log10FFU/ml in the assay on Influenza A virus [14]; 35% in [4].
As for `NCCCC[C@H](N)C(=O)NCCCCCC(=O)N[C@@H](CO)C(=O)NCCCOCCCCOCCCNC(=O)[C@H](CO)NC(=O)CCCCCNC(=O)[C@@H](N)CCCCN`, the TIME in assay [1] is greater than 24 h. For the same compound, in [2], the K was 0.005 h⁻¹. The Activity in assay [3] is 10%; in assay [4], 11%.
As for `N[C@@H](CCC(=O)O)C(=O)NCCCCCC(=O)N[C@@H](CO)C(=O)NCCCOCCCCOCCCNC(=O)[C@H](CO)NC(=O)CCCCCNC(=O)[C@@H](N)CCC(=O)O`, the TIME in assay [1] is 17 h. Also, the K in [2] was 0.033 h⁻¹. The Activity was determined as 23% in assay [3] and 18% in [4].
On to `N=C(N)NCCC[C@H](N)C(=O)NCCCOCCCCOCCCNC(=O)[C@@H](N)CCCNC(=N)N`, for which the TIME in [1] is 10 h. Further, the K in [2] amounted to 0.062 h⁻¹. Moreover, the values for the Activity in assay [3] and in assay [4] were 38% and 25%, respectively.
In the case of `N[C@@H](CCC(=O)O)C(=O)NCCCCCCCCCCCCNC(=O)[C@@H](N)CCC(=O)O`, the TIME in assay [1] turned out to be 2 h. In the assay with MDCK, the 50% inhibitory concentration (IC50) is greater than 5000 µM. Besides, the Activity was 2.1 log10FFU/ml in the assay with Influenza A virus [15]; “Dose-dependent effect” in the assay with Influenza A virus [8]; 4.8 log10FFU/ml with Influenza A virus [9]; 60% in assay [3]; less than 1 log10FFU/ml with Influenza A virus [14]; 39% in assay [4]. For the same compound, the K in assay [2] is 0.276 h⁻¹. For the same compound, the outcome in assay [6] was Active. The “fold change (FC)” value in the assay with Influenza A virus [11] stood at 1.5.
For the compound `N[C@@H](CCC(=O)OCc1ccccc1)C(=O)NCCCCCCCCCCCCNC(=O)[C@@H](N)CCC(=O)OCc1ccccc1`, the TIME in assay [1] turned out to be 9 h. For the same compound, the Activity in the assay with Influenza A virus [7] was 2.3 log10FFU/ml; in the assay with Influenza A virus [16], less than 1 log10FFU/ml; in the assay on Influenza A virus [8] it was “Dose-dependent effect”; in the assay on Influenza A virus [9], 4.4 log10FFU/ml; in assay [3], 18%; in assay [4], 45%. Also, the concentration for half-maximal inhibition (IC50) with MDCK was greater than 5000 µM. Besides, the K in [2] is 0.053 h⁻¹.
Regarding `NCCCC[C@H](N)C(=O)NCCCCCCCCCCCCNC(=O)[C@@H](N)CCCCN`, in [1], the TIME worked out at 7 h. In assay [2], the K turned out to be 0.07 h⁻¹. Moreover, the Activity is 24% in assay [3] and 8% in assay [4].
`N[C@@H](CO)C(=O)NCCCCCCCCCCCCNC(=O)[C@@H](N)CO`: the TIME in assay [1] is 6 h. The K in assay [2] was 0.079 h⁻¹. Besides, the values for the Activity in assay [3] and in [4] were 28% and 13%, respectively.
